ChEMBL document CHEMBL1127132, “Synthesis and biological activity of tetracyclic carbapenems” (1993)
≈ marks a conversion by molar mass, not a printed value.

Legend:
Format in all cases: functional
Providencia rettgeri = assay: Compound was evaluated for antibacterial activity against Proteus rettgeri 10007 compared to imipenem
Acinetobacter = assay: (§1) Compound was evaluated for antibacterial activity against Acinetobacter 14601 compared to imipenem
Pseudomonas aeruginosa = assay: Compound was evaluated for antibacterial activity against Pseudomonas aeruginosa F 41 compared to imipenem
Enterobacter cloacae [1] = assay: Compound was evaluated for antibacterial activity against Enterobacter cloacae 5744 compared to imipenem
Klebsiella [2] = assay: Compound was evaluated for antibacterial activity against Klebsiella 63 compared to imipenem
Proteus mirabilis = assay: Compound was evaluated for antibacterial activity against Proteus mirabilis 1235 compared to imipenem
Staphylococcus [3] = assay: Compound was evaluated for antibacterial activity against Staphylococcus 25470 compared to imipenem
Serratia [4] = assay: Compound was evaluated for antibacterial activity against serratia 16001 compared to imipenem
Morganella morganii = assay: Compound was evaluated for antibacterial activity against Proteus morganii.932 compared to imipenem
Proteus vulgaris = assay: Compound was evaluated for antibacterial activity against Proteus vulgaris N6 compared to imipenem
Staphylococcus aureus [5] = assay: Compound was evaluated for antibacterial activity against Staphylococcus aureus 133 compared to imipenem
Klebsiella [6] = assay: Compound was evaluated for antibacterial activity against Klebsiella 57USA compared to imipenem
Escherichia coli [7] = assay: Compound was evaluated for antibacterial activity against Escherichia coli Neumann compared to imipenem
Escherichia coli [8] = assay: Compound was evaluated for antibacterial activity against Escherichia coli F14 compared to imipenem
Serratia [9] = assay: Compound was evaluated for antibacterial activity against serratia 16002 compared to imipenem
Staphylococcus [10] = assay: Compound was evaluated for antibacterial activity against Staphylococcus 25455 compared to imipenem
Staphylococcus aureus [11] = assay: Compound was evaluated for antibacterial activity against Staphylococcus aurues 133 compared to imipenem
Staphylococcus [12] = assay: Tested for antibacterial activity against Staphylococcus 25470 compared to imipenem
Acinetobacter sp. = assay: as §1
Enterobacter cloacae [13] = assay: Compound was evaluated for antibacterial activity against Enterob. cl.5744 compared to imipenem

MIC (Providencia rettgeri) [µg/mL]	MIC (Acinetobacter) [µg/mL]	MIC (Pseudomonas aeruginosa) [µg/mL]	MIC (Enterobacter cloacae [1]) [µg/mL]	MIC (Klebsiella [2]) [µg/mL]	MIC (Proteus mirabilis) [µg/mL]	MIC (Staphylococcus [3]) [µg/mL]	MIC (Serratia [4]) [µg/mL]	MIC (Morganella morganii) [µg/mL]	MIC (Proteus vulgaris) [µg/mL]	MIC (Staphylococcus aureus [5]) [µg/mL]	MIC (Klebsiella [6]) [µg/mL]	MIC (Escherichia coli [7]) [µg/mL]	MIC (Escherichia coli [8]) [µg/mL]	MIC (Serratia [9]) [µg/mL]	MIC (Staphylococcus [10]) [µg/mL]	MIC (Staphylococcus aureus [11]) [µg/mL]	MIC (Staphylococcus [12]) [µg/mL]	SMILES	MIC (Acinetobacter sp.) [µg/mL]	MIC (Enterobacter cloacae [13]) [µg/mL]
2	4	128	4	2	< 0.25	8	8	1	< 0.25	< 0.25	4	0.5	8	16	< 0.25			C[C@@H](O)[C@H]1C(=O)N2C(C(=O)[O-])=C3c4ccccc4SC[C@@H]3[C@H]12.[Na+]		
4	16	128	8	4	1	32	32	2	< 0.25		4	1	8	32	1	1		C[C@@H](O)[C@H]1C(=O)N2C(C(=O)[O-])=C3c4ccsc4CC[C@@H]3[C@H]12.[Na+]		
16	64	128	32	16	0.5		64	16	1	0.5	1	2	16	64	0.5		128	C[C@@H](O)[C@H]1C(=O)N2C(C(=O)[O-])=C3c4ccccc4CCC[C@@H]3[C@H]12.[Na+]		

SMILES	MIC (Providencia rettgeri) [µg/mL]	MIC (Acinetobacter) [µg/mL]	MIC (Pseudomonas aeruginosa) [µg/mL]	MIC (Enterobacter cloacae [1]) [µg/mL]	MIC (Klebsiella [2]) [µg/mL]	MIC (Proteus mirabilis) [µg/mL]	MIC (Staphylococcus [3]) [µg/mL]	MIC (Serratia [4]) [µg/mL]	MIC (Morganella morganii) [µg/mL]	MIC (Proteus vulgaris) [µg/mL]	MIC (Staphylococcus aureus [5]) [µg/mL]	MIC (Klebsiella [6]) [µg/mL]	MIC (Escherichia coli [7]) [µg/mL]	MIC (Escherichia coli [8]) [µg/mL]	MIC (Serratia [9]) [µg/mL]	MIC (Staphylococcus [10]) [µg/mL]	MIC (Staphylococcus aureus [11]) [µg/mL]	MIC (Staphylococcus [12]) [µg/mL]	MIC (Acinetobacter sp.) [µg/mL]	MIC (Enterobacter cloacae [13]) [µg/mL]
C[C@@H](O)[C@H]1C(=O)N2C(C(=O)O)=C(SCCNC=N)C[C@H]12 [IMIPENEM ANHYDROUS]	2 (≈ 6.68 µM)		2 (≈ 6.68 µM)		< 0.25	4 (≈ 13.4 µM)	32 (≈ 107 µM)	< 0.25	0.5 (≈ 1.67 µM)	0.5 (≈ 1.67 µM)	< 0.25	< 0.25	< 0.25	< 0.25	0.5 (≈ 1.67 µM)	< 0.25			< 0.25	0.5 (≈ 1.67 µM)
